According to ChEMBL document CHEMBL1201862, “PubChem BioAssay data set” (2004):
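In this assay, cells in 96-well plates receive the compound at five concentrations for 48 hours. Endpoints are linearly interpolated between the surrounding concentrations. GI50: concentration for 50% inhibition of growth.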 The source made the active and inactive calls. Rule as the data show it: active = GI50 up to about 1.1 µM and inactive = higher.

Tests used:
Assay in all cases: NCI-60 cell line screen, 48 h
[1] = tested on: SK-MEL-5
[2] = tested on: NCI-H522
[3] = tested on: SF-268
[4] = tested on: IGROV-1
[5] = tested on: K562
[6] = tested on: NCI-H460
[7] = tested on: SW-620
[8] = tested on: EKVX
[9] = tested on: HL-60
[10] = tested on: A549
[11] = tested on: Hs-578T
[12] = tested on: SK-OV-3
[13] = tested on: OVCAR-3
[14] = tested on: HOP-62
[15] = tested on: NCI-H23
[16] = tested on: HCC 2998
[17] = tested on: HT-29
[18] = tested on: MDA-N
[19] = tested on: UO-31
[20] = tested on: SF-539

Measured: GI50

CN1C/C(=C\c2cccs2)C2=NC(=S)NC(c3cccs3)C2C1 (centres undefined)
inactive: [1] 33.6 µM | [2] 36.4 µM | [3] 61.4 µM | [4] 46.3 µM | [5] 44.7 µM | [6] 50.6 µM | [7] > 100 µM | [8] 56.4 µM | [9] 2.22 µM | [10] 50.7 µM | [11] > 100 µM | [12] > 100 µM | [13] 76.4 µM | [14] > 100 µM | [15] 77.6 µM | [16] 93.8 µM | [17] 68.7 µM | [18] 66.1 µM | [19] 38.3 µM

CCOC(=O)c1c(-c2ccc(O)c(OC)c2)c(C#N)c(=S)n(C2OC(CO)C(O)C(O)C2O)c1-c1ccccc1 (centres undefined)
inactive: [1] > 100 µM | [3] > 100 µM | [4] > 100 µM | [5] > 100 µM | [6] > 100 µM | [7] > 100 µM | [8] > 100 µM | [9] > 100 µM | [10] > 100 µM | [11] > 100 µM | [13] > 100 µM | [14] > 100 µM | [15] > 100 µM | [16] > 100 µM | [17] > 100 µM | [18] > 100 µM | [19] > 100 µM

CC(=O)OC1O[C@@H](C(C)(C)O)CC[C@@H]1[C@H]1CC[C@@]2(C)C3=C(CC[C@]12C)[C@@]1(C)C[C@@H](OC(=O)CC(C)(O)CC(=O)O)[C@H](OC(C)=O)C(C)(C)C1CC3 (some centres undefined)
inactive: [1] 19.2 µM | [4] 19.2 µM | [5] 31.3 µM | [6] 18 µM | [7] 17.5 µM | [8] 17.5 µM | [9] 24.4 µM | [10] 17.2 µM | [11] 19.5 µM | [12] 18.2 µM | [13] 18.6 µM | [14] 18.8 µM | [15] 21.2 µM | [16] 19 µM | [17] 20.1 µM | [18] 19.2 µM | [19] 15 µM

O=C(O)c1ccccc1/C=C1/Nc2ccccc2C1=O
inactive: [20] 92.9 µM | [3] 93.1 µM | [4] 24.2 µM | [5] > 100 µM | [6] 32.9 µM | [7] 57.5 µM | [8] 60 µM | [9] 64 µM | [10] > 100 µM | [11] 62.5 µM | [12] > 100 µM | [13] > 100 µM | [14] > 100 µM | [15] > 100 µM | [16] > 100 µM | [17] 67.9 µM | [18] > 100 µM | [19] 50 µM

CN(C)C(=O)c1nnsc1NN=O
inactive: [1] > 100 µM | [2] > 100 µM | [3] > 100 µM | [4] > 100 µM | [5] > 100 µM | [6] > 100 µM | [7] > 100 µM | [8] > 100 µM | [9] > 100 µM | [10] > 100 µM | [11] > 100 µM | [12] > 100 µM | [13] 87.7 µM | [14] > 100 µM | [15] > 100 µM | [16] > 100 µM | [17] > 100 µM | [18] > 100 µM | [19] > 100 µM

CC1(C)N=C(/C(Cl)=[N+](/[O-])C(=O)c2ccc(F)cc2)C(C)(C)N1O
inactive: [1] 16.4 µM | [20] 23.7 µM | [3] 16.9 µM | [4] 19.5 µM | [5] 2.53 µM | [6] 31.9 µM | [7] 15.1 µM | [8] 20.1 µM | [9] 10.8 µM | [10] 45.8 µM | [11] 26.6 µM | [12] 22.6 µM | [13] 17 µM | [14] 19.6 µM | [15] 17.1 µM | [16] 18.8 µM | [17] 19.9 µM | [18] 16.4 µM | [19] 21 µM
